According to patent US5087440A, “Heterocyclic derivatives of DTPA used for magnetic resonance imaging” (Salutar, Inc., priority 1990, dated 1992):

Tests used:
[1] = iv administration; AU-81889/87; cited from earlier work
[2] = test system: Swiss Webster mice; assay: Acute toxicity (LD50), iv administration to mice; assay type: in vivo; settings: 500 mM Gd chelate alone or with 25 mM added Ca chelate
Description: Acute toxicity (LD50) values were determined for compositions comprising 500 mM Gd DTPA-APD alone or together with 25 mM of the calcium chelate of DTPA-APD and, for further comparison, for compositions comprising 500 mM Gd DTPA-dimeglumine alone or together with 25 mM of a calcium chelate of DTPA or a DTPA-bisamide (the bismethylamide. The acute toxicities were determined by iv administrations of the compositions to Swiss Webster mice.

CNC[C@H](O)[C@@H](O)[C@H](O)[C@H](O)CO.CNC[C@H](O)[C@@H](O)[C@H](O)[C@H](O)CO.O=C([O-])CN(CCN(CC(=O)[O-])CC(=O)O)CCN(CC(=O)[O-])CC(=O)O.[Gd+3] [Gd DTPA]
gadolinium retention (in words) [1]: gadolinium retention following iv administration
LD50 (iv mice) [2]: 5.5 mmol/kg
